Assay results taken from patent US6417177B1, “Chloroquine derivatives for the treatment of Parkinson's disease” (Alpha Research Group, LLC, priority 1999, dated 2002).

How the values were obtained:
[1] = in vitro comparison of chloroquine phosphate enantiomers for binding to neuromelanin; conditions: compared between enantiomers of chloroquine phosphate
Description: (§1) Enantiomers of chloroquine phosphate were isolated according to the procedure of Stalcup, A. M. et al. (1996), Analytical Chemistry 68:2248-50. Comparisons of these enantiomers with respect to ability to inhibit diamine oxidase and bind to neuromelanin are performed in vitro.

[2] = target: T1, diamine oxidase (Homo sapiens, UniProt P19801); experiment: in vitro comparison of chloroquine phosphate enantiomers for inhibition of diamine oxidase; assay type: biochemical; conditions: compared between enantiomers of chloroquine phosphate
T1 sequence (P19801 20-751): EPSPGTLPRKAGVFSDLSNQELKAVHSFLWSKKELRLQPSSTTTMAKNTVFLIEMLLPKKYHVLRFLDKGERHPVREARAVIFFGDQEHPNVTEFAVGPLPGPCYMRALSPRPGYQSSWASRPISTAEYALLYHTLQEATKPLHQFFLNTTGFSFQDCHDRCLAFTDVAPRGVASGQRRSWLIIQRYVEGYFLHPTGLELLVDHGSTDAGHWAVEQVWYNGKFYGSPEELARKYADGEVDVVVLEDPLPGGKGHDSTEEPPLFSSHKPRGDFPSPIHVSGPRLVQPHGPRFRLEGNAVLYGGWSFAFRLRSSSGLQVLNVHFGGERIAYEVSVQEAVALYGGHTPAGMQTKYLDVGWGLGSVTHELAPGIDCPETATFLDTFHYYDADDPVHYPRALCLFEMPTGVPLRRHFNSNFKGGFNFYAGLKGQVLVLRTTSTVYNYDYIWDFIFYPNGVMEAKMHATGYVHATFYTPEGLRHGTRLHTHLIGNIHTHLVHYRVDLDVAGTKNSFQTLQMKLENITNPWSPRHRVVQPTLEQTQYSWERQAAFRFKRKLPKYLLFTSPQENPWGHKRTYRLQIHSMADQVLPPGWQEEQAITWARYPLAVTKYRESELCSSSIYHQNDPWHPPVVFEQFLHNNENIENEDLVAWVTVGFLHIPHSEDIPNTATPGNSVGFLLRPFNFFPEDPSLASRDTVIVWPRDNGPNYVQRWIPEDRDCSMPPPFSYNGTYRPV
Description: as §1

[3] = tested on: Parkinson's Disease; conditions: cited from earlier work

SMILES | ability to bind neuromelanin [1] | ability to inhibit diamine oxidase [2] | delay of the need to commence L-DOPA treatment ([3]; American researchers) | increase in patient mortality ([3]; co-administered with L-DOPA, compared to the group treated with L-DOPA only) [%] | neural protection ([3]; two-year patient follow-up examinations)
CCN(CC)CCCC(C)Nc1ccnc2cc(Cl)ccc12 (single isomer, unassigned) [active enantiomer] | significantly enhanced ability | significantly enhanced ability | – | – | –
C#CCN(C)[C@H](C)Cc1ccccc1 [Deprenyl] | – | – | up to nine months | 60 | no neural protection was found
